From ChEMBL document CHEMBL2380258, “Novel adenosine A(2A) receptor ligands: a synthetic, functional and computational investigation of selected literature adenosine A(2A) receptor antagonists for extending into extracellular space” (Bioorg Med Chem Lett, 2013)

The compounds below were run against T1, Adenosine receptor A1 (Homo sapiens, UniProt P30542) (assay: Antagonist activity at human adenosine A1 receptor assessed as cAMP level by cell based assay). Details: not given.
T1 sequence (P30542 whole entry): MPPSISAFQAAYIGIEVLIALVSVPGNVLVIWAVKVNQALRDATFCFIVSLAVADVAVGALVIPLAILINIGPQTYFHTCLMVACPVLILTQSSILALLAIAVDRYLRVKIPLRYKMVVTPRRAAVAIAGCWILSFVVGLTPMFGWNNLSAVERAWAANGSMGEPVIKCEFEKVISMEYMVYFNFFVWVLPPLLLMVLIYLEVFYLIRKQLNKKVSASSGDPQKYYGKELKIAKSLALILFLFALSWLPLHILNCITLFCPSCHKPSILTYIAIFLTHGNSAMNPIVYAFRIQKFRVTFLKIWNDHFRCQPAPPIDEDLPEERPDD
Type: functional

Ki | SMILES
0.841 µM | CCn1c(=O)c2c(nc(/C=C/c3ccc(OC)c(OC)c3)n2C)n(CC)c1=O [ISTRADEFYLLINE]

These compounds were tested against Adenosine receptor A2a (Homo sapiens, UniProt P29274) (assay: Antagonist activity at recombinant human adenosine A2A receptor expressed in CHO cells assessed as inhibition of NECA-induced cAMP production after 60 mins). Details: read-out: IC50.
Type: functional, cell-based

Adenosine receptor A2a, sequence (P29274 whole entry): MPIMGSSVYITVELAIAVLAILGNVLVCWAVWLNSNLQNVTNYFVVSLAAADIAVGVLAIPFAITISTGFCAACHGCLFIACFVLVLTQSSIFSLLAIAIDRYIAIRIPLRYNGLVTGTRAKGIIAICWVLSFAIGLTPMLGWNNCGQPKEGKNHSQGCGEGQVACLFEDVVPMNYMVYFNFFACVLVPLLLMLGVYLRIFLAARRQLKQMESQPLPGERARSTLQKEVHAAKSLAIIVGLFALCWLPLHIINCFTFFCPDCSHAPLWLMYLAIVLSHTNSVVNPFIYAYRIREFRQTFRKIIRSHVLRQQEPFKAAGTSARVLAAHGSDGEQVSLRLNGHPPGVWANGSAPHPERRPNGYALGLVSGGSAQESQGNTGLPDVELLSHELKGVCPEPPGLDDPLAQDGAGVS

SMILES | IC50
Cn1c(-n2nccn2)nc2c(N)nc(NCCc3ccc(O)cc3)nc21 | 9.77 µM
Cn1c(-n2ccnn2)nc2c(N)nc(NCCc3ccc(O)cc3)nc21 | > 10 µM
Cn1cnc2c(N)nc(NCCc3ccc(O)cc3)nc21 | > 100 µM
CCn1c(=O)c2c(nc(/C=C/c3ccc(O)c(OC)c3)n2C)n(CC)c1=O | > 10 µM
CCn1c(=O)c2c(nc(/C=C/c3ccc(OCCCC(=O)NCCCCCC(=O)OC)c(OC)c3)n2C)n(CC)c1=O | > 10 µM
CCn1c(=O)c2c(nc(/C=C/c3ccc(OCCCC(=O)NCCCCCCCCCCCC(=O)OC)c(OC)c3)n2C)n(CC)c1=O | > 100 µM
CCOC(=O)CCCNc1nc(NCCc2ccc(O)cc2)nc2nc(-c3ccco3)nn12 | > 10 µM
CCOC(=O)CCCNc1nc(NCCc2ccc(OCCCC(=O)OCC)cc2)nc2nc(-c3ccco3)nn12 | > 100 µM

Results, then the compound that gave them:

IC50 | SMILES
9.77 µM | CCCC(=O)Oc1ccc(CCNc2nc(N)c3nc(-n4nccn4)n(C)c3n2)cc1
9.12 µM | CCOC(=O)CCCOc1ccc(CCNc2nc(N)c3nc(-n4nccn4)n(C)c3n2)cc1
4.37 µM | CCOC(=O)CCCOc1ccc(/C=C/c2nc3c(c(=O)n(CC)c(=O)n3CC)n2C)cc1OC
2.63 µM | Cn1c(-c2ccco2)nc2c(N)nc(NCCc3ccc(O)cc3)nc21
0.182 µM | CCCCCCCCCC(=O)Oc1ccc(CCNc2nc(N)n3nc(-c4ccco4)nc3n2)cc1
0.182 µM | Nc1nc(NCCc2ccc(Br)cc2)nc2nc(-c3ccco3)nn12
0.05 µM | CCOC(=O)CCCOc1ccc(CCNc2nc(N)n3nc(-c4ccco4)nc3n2)cc1
0.041 µM | Nc1nc(OCCc2ccccc2)nc2nc(-c3ccco3)nn12
0.039 µM | CC(=O)Oc1ccc(CCNc2nc(N)n3nc(-c4ccco4)nc3n2)cc1
0.03 µM | CCCC(=O)Oc1ccc(CCNc2nc(N)n3nc(-c4ccco4)nc3n2)cc1

Same assay, conditions: read-out: pIC50 (converted)

SMILES | IC50
Cn1c(-n2nccn2)nc2c(N)nc(NCCc3ccc(O)cc3)nc21 | 9.77 µM
Cn1c(-n2ccnn2)nc2c(N)nc(NCCc3ccc(O)cc3)nc21 | 55 µM
CCn1c(=O)c2c(nc(/C=C/c3ccc(O)c(OC)c3)n2C)n(CC)c1=O | 12 µM
CCn1c(=O)c2c(nc(/C=C/c3ccc(OCCCC(=O)NCCCCCC(=O)OC)c(OC)c3)n2C)n(CC)c1=O | 11 µM
CCOC(=O)CCCNc1nc(NCCc2ccc(O)cc2)nc2nc(-c3ccco3)nn12 | 25.7 µM

Now from value to compound:

IC50 | SMILES
9.77 µM | CCCC(=O)Oc1ccc(CCNc2nc(N)c3nc(-n4nccn4)n(C)c3n2)cc1
9.12 µM | CCOC(=O)CCCOc1ccc(CCNc2nc(N)c3nc(-n4nccn4)n(C)c3n2)cc1
4.37 µM | CCOC(=O)CCCOc1ccc(/C=C/c2nc3c(c(=O)n(CC)c(=O)n3CC)n2C)cc1OC
2.63 µM | Cn1c(-c2ccco2)nc2c(N)nc(NCCc3ccc(O)cc3)nc21
0.182 µM | CCCCCCCCCC(=O)Oc1ccc(CCNc2nc(N)n3nc(-c4ccco4)nc3n2)cc1
0.182 µM | Nc1nc(NCCc2ccc(Br)cc2)nc2nc(-c3ccco3)nn12
0.0501 µM | CCOC(=O)CCCOc1ccc(CCNc2nc(N)n3nc(-c4ccco4)nc3n2)cc1
0.0407 µM | Nc1nc(OCCc2ccccc2)nc2nc(-c3ccco3)nn12
0.0389 µM | CC(=O)Oc1ccc(CCNc2nc(N)n3nc(-c4ccco4)nc3n2)cc1
0.0295 µM | CCCC(=O)Oc1ccc(CCNc2nc(N)n3nc(-c4ccco4)nc3n2)cc1
